Measured values from the NIST ThermoML archive (doi:10.1021/je5010214).
Numbers after ± are expanded uncertainties.

Conditions: Liquid, Vibrating tube method

CC(C)CO [2-methyl-1-propanol]
Conditions | mass density [kg/m3]
323.15 K, 32903 kPa | 805.081 ± 0.86
323.15 K, 33102 kPa | 805.154 ± 0.87
323.15 K, 33950 kPa | 805.707 ± 0.87
323.15 K, 34958 kPa | 806.425 ± 0.87
323.15 K, 37883 kPa | 808.369 ± 0.88
323.15 K, 39891 kPa | 809.68 ± 0.88
323.15 K, 42065 kPa | 811.076 ± 0.89
323.15 K, 44846 kPa | 812.852 ± 0.89
323.15 K, 49935 kPa | 815.968 ± 0.91
323.15 K, 52064 kPa | 817.249 ± 0.91
323.15 K, 54897 kPa | 818.944 ± 0.92
323.15 K, 57818 kPa | 820.634 ± 0.93
323.15 K, 59855 kPa | 821.787 ± 0.93
323.15 K, 61856 kPa | 822.928 ± 0.94
323.15 K, 64838 kPa | 824.6 ± 0.94
323.15 K, 65957 kPa | 825.209 ± 0.94
323.16 K, 1117.8 kPa | 779.897 ± 0.81
323.16 K, 47886 kPa | 814.721 ± 0.9
328.15 K, 96.5 kPa | 774.907 ± 0.81
328.15 K, 395.8 kPa | 775.157 ± 0.81
328.15 K, 904.1 kPa | 775.603 ± 0.81
328.15 K, 1030.6 kPa | 775.74 ± 0.81
328.15 K, 2999.3 kPa | 777.646 ± 0.81
328.15 K, 5042 kPa | 779.515 ± 0.81
328.15 K, 10121 kPa | 784.077 ± 0.82
328.15 K, 11905 kPa | 785.621 ± 0.82
328.15 K, 24953 kPa | 795.929 ± 0.85
328.15 K, 27874 kPa | 798.098 ± 0.86
328.15 K, 29949 kPa | 799.588 ± 0.86
328.15 K, 31948 kPa | 800.996 ± 0.86
328.15 K, 33061 kPa | 801.681 ± 0.87
328.15 K, 34111 kPa | 802.415 ± 0.87
328.15 K, 34984 kPa | 803.007 ± 0.87
328.15 K, 37913 kPa | 805.001 ± 0.88
328.15 K, 41958 kPa | 807.674 ± 0.89
328.15 K, 44806 kPa | 809.5 ± 0.9
328.15 K, 55150 kPa | 815.995 ± 0.92
328.15 K, 58100 kPa | 817.75 ± 0.93
328.15 K, 60045 kPa | 818.881 ± 0.93
328.15 K, 62082 kPa | 820.048 ± 0.94
328.15 K, 66095 kPa | 822.334 ± 0.95
328.16 K, 515 kPa | 775.262 ± 0.81
328.16 K, 2069.7 kPa | 776.794 ± 0.81
328.16 K, 6936.7 kPa | 781.257 ± 0.82
328.16 K, 8874.2 kPa | 782.985 ± 0.82
328.16 K, 14954 kPa | 788.149 ± 0.83
328.16 K, 17891 kPa | 790.513 ± 0.83
328.16 K, 20040 kPa | 792.21 ± 0.84
328.16 K, 22054 kPa | 793.773 ± 0.84
328.16 K, 33018 kPa | 801.745 ± 0.87
328.16 K, 39966 kPa | 806.346 ± 0.88
328.16 K, 47820 kPa | 811.414 ± 0.9
328.16 K, 49817 kPa | 812.637 ± 0.91
328.16 K, 52099 kPa | 814.145 ± 0.91
328.16 K, 64955 kPa | 821.692 ± 0.95
333.15 K, 95.7 kPa | 770.629 ± 0.81
333.15 K, 913.6 kPa | 771.467 ± 0.81
333.15 K, 6965.6 kPa | 777.259 ± 0.82
333.15 K, 8937.3 kPa | 779.076 ± 0.82
333.15 K, 9995.1 kPa | 780.005 ± 0.82
333.15 K, 11970 kPa | 781.72 ± 0.82
333.15 K, 14915 kPa | 784.255 ± 0.83
333.15 K, 22033 kPa | 790.027 ± 0.84
333.15 K, 29996 kPa | 796.045 ± 0.86
333.15 K, 31986 kPa | 797.49 ± 0.87
333.15 K, 32928 kPa | 798.124 ± 0.87
333.15 K, 41792 kPa | 804.162 ± 0.89
333.15 K, 47830 kPa | 808.087 ± 0.91
333.15 K, 49895 kPa | 809.38 ± 0.91
333.15 K, 51876 kPa | 810.61 ± 0.92
333.15 K, 54830 kPa | 812.44 ± 0.92
333.15 K, 58116 kPa | 814.429 ± 0.93
333.15 K, 59975 kPa | 815.509 ± 0.94
333.15 K, 61974 kPa | 816.676 ± 0.94
333.15 K, 65057 kPa | 818.467 ± 0.95
333.15 K, 66042 kPa | 819.039 ± 0.95
333.16 K, 295.9 kPa | 770.818 ± 0.81
333.16 K, 574.5 kPa | 771.11 ± 0.81
333.16 K, 1069.5 kPa | 771.621 ± 0.81
333.16 K, 2110.6 kPa | 772.649 ± 0.81
333.16 K, 3100 kPa | 773.622 ± 0.81
333.16 K, 5034 kPa | 775.464 ± 0.81
333.16 K, 17954 kPa | 786.777 ± 0.84
333.16 K, 19985 kPa | 788.397 ± 0.84
333.16 K, 24923 kPa | 792.261 ± 0.85
333.16 K, 27922 kPa | 794.514 ± 0.86
333.16 K, 33031 kPa | 798.137 ± 0.87
333.16 K, 34001 kPa | 798.837 ± 0.87
333.16 K, 35030 kPa | 799.567 ± 0.87
333.16 K, 37925 kPa | 801.558 ± 0.88
333.16 K, 39862 kPa | 802.861 ± 0.89
333.16 K, 44782 kPa | 806.126 ± 0.9
338.15 K, 72.5 kPa | 765.803 ± 0.81
338.15 K, 267.1 kPa | 766.009 ± 0.81
338.15 K, 496.5 kPa | 766.255 ± 0.81
338.15 K, 821.3 kPa | 766.6 ± 0.81
338.15 K, 1007.7 kPa | 766.796 ± 0.81
338.15 K, 2012.4 kPa | 767.824 ± 0.81
338.15 K, 3039.1 kPa | 768.845 ± 0.81
338.15 K, 7018.5 kPa | 772.739 ± 0.82
338.15 K, 8987.6 kPa | 774.596 ± 0.82
338.15 K, 10054 kPa | 775.578 ± 0.82
338.15 K, 18105 kPa | 782.627 ± 0.84
338.15 K, 22120 kPa | 785.947 ± 0.85
338.15 K, 28029 kPa | 790.565 ± 0.86
338.15 K, 32010 kPa | 793.527 ± 0.87
338.15 K, 32776 kPa | 794.103 ± 0.87
338.15 K, 32995 kPa | 794.184 ± 0.87
338.15 K, 33922 kPa | 794.869 ± 0.87
338.15 K, 38056 kPa | 797.798 ± 0.88
338.15 K, 42127 kPa | 800.629 ± 0.9
338.15 K, 48090 kPa | 804.572 ± 0.91
338.15 K, 50121 kPa | 805.906 ± 0.92
338.15 K, 52094 kPa | 807.168 ± 0.92
338.15 K, 55116 kPa | 809.055 ± 0.93
338.15 K, 58010 kPa | 810.837 ± 0.94
338.15 K, 60191 kPa | 812.149 ± 0.94
338.15 K, 62244 kPa | 813.373 ± 0.95
338.15 K, 65243 kPa | 815.143 ± 0.96
338.15 K, 65986 kPa | 815.583 ± 0.96
338.15 K, 66355 kPa | 815.805 ± 0.96
338.16 K, 5091.1 kPa | 770.879 ± 0.81
338.16 K, 12131 kPa | 777.462 ± 0.83
338.16 K, 15171 kPa | 780.113 ± 0.83
338.16 K, 20167 kPa | 784.349 ± 0.84
338.16 K, 25290 kPa | 788.465 ± 0.85
338.16 K, 30041 kPa | 792.069 ± 0.86
338.16 K, 35102 kPa | 795.7 ± 0.88
338.16 K, 39987 kPa | 799.156 ± 0.89
338.16 K, 45109 kPa | 802.623 ± 0.9
343.15 K, 55.6 kPa | 761.239 ± 0.81
343.15 K, 101.8 kPa | 761.279 ± 0.81
343.15 K, 277.3 kPa | 761.484 ± 0.81
343.15 K, 487.7 kPa | 761.699 ± 0.81
343.15 K, 881.6 kPa | 762.13 ± 0.81
343.15 K, 1037 kPa | 762.294 ± 0.81
343.15 K, 1941.4 kPa | 763.263 ± 0.81
343.15 K, 3000.3 kPa | 764.362 ± 0.81
343.15 K, 4957 kPa | 766.378 ± 0.81
343.15 K, 6956.1 kPa | 768.377 ± 0.82
343.15 K, 8969.5 kPa | 770.304 ± 0.82
343.15 K, 10003 kPa | 771.264 ± 0.82
343.15 K, 11997 kPa | 773.149 ± 0.83
343.15 K, 14895 kPa | 775.758 ± 0.83
343.15 K, 17840 kPa | 778.358 ± 0.84
343.15 K, 20135 kPa | 780.417 ± 0.84
343.15 K, 21925 kPa | 781.908 ± 0.85
343.15 K, 24920 kPa | 784.349 ± 0.85
343.15 K, 27949 kPa | 786.755 ± 0.86
343.15 K, 29863 kPa | 788.238 ± 0.87
343.15 K, 31874 kPa | 789.777 ± 0.87
343.15 K, 32927 kPa | 790.544 ± 0.87
343.15 K, 32981 kPa | 790.602 ± 0.87
343.15 K, 34026 kPa | 791.305 ± 0.88
343.15 K, 35028 kPa | 792.011 ± 0.88
343.15 K, 38080 kPa | 794.257 ± 0.89
343.15 K, 39908 kPa | 795.53 ± 0.89
343.15 K, 41973 kPa | 796.98 ± 0.9
343.15 K, 44972 kPa | 799.034 ± 0.91
343.15 K, 47997 kPa | 801.072 ± 0.91
